Measured values published in BigSolDB 2.1.

COc1cc(-c2cc(=O)c3c(O)cc(O)cc3o2)cc(OC)c1O
solubility (mole fraction)
Details | 288.15 K | 293.16 K | 298.15 K | 303.15 K | 308.16 K | 313.18 K | 318.15 K
in ethanol | 5.94e-06 | 8.85e-06 | 1.26e-05 | 1.72e-05 | 2.19e-05 | 3e-05 | 3.83e-05
in water | 5e-10 | 1e-09 | 1.4e-09 | 2.1e-09 | 3.5e-09 | 5.6e-09 | 8.1e-09
